Data published in US20150208658A1, “METHODS OF SOIL PEST CONTROL” (Syngenta Participations AG, priority 2012, published 2015).
Read-outs that look alike come from different tables or passages of the source.

Legend:
Diabrotica balteata [1] = experiment: Diabrotica balteata (Corn Rootworm): 24-well microtiter plate with artificial diet, L2 larvae, larval mortality; type: in vivo; conditions: for pest or weed control at 200 ppm / pest or weed control at 50 µg/mL: Diabrotica balteata, 120 h; for pest or weed control at 200 ppm: read-out: control of Diabrotica balteata; for pest or weed control at 50 µg/mL: read-out: control of Diabrotica balteata at 50 ppm or less; for Control/%: comparative example
Description: Diabrotica balteata (Corn Rootworm)
[…] After drying, the MTP's are infested with L2 larvae (6-10 per well). After an incubation period of 5 days, samples are checked for larval mortality.
Compounds are tested according to the above method.

Diabrotica balteata [2] = experiment: Diabrotica balteata (Banded Cucumber Beetle): treated corn seeds sown in soil pots, seedlings infested with 3rd stage larvae; type: in vivo; conditions: seed treatment, 6 days incubation
Description: Diabrotica balteata (Banded Cucumber Beetle)
Treated corn seeds are sown in a 350 ml pot filled with soil. Two weeks after sowing phytotoxicity (lack of shoot—missing emergence) in comparison to the control is estimated and expressed in percentage. Furthermore, corn seedlings are infested with 3rd stage larvae of Diabrotica balteata. After an incubation period of 6 days survived larvae are counted and larval growth is assessed. Larval growth indicates the number of larvae with size differences between the larvae in the control and treatments, expressed in percentage.

[3] = 50 ppm or less, L2 larvae, 5 days
[4] = application rate 200 ppm (concentration in well 18 ppm), L2 larvae, 5 days

**Q.** Which pest or weed control at 200 ppm (Diabrotica balteata [1]) does the source give for `CC(C)C(=O)NCc1ccc(C2=NOC(c3cc(Cl)cc(Cl)c3)(C(F)(F)F)C2)cc1Cl` (stereo not shown) [Compound A2] here?
**A.** ≥ 80%

**Q.** And the pest or weed control at 50 µg/mL (Diabrotica balteata [1])?
**A.** > 80%

**Q.** Which results are given for `CCC(=O)NCc1ccc(C2=NOC(c3cc(Cl)cc(Cl)c3)(C(F)(F)F)C2)cc1Cl` (stereo not shown) [Compound A3]?
**A.** pest or weed control at 200 ppm (Diabrotica balteata [1]): ≥ 80%; pest or weed control at 50 µg/mL (Diabrotica balteata [1]): > 80%

**Q.** With `CC(=O)NCc1ccc(N2CCC(c3cc(Cl)cc(Cl)c3)(C(F)(F)F)C2)cc1C` (stereo not shown) [Compound A4, N-{4-[3-(3,5-dichlorophenyl)-3-(trifluoromethyl)pyrrolidin1-yl]-2-methyl-benzyl)acetamide] as the molecule, how does the pest or weed control at 50 µg/mL (Diabrotica balteata [1]; [3]) read?
**A.** > 80%

**Q.** What about the pest or weed control at 200 ppm (Diabrotica balteata [1]; [4]) of the same molecule?
**A.** ≥ 80%

**Q.** Which results are given for `CC(=O)NCc1ccc(C2=NCC(c3cc(Cl)cc(Cl)c3)(C(F)(F)F)C2)cc1Br` (stereo not shown) [Compound A5, N-{2-bromo-4-[4-(3,5-dichlorophenyl)-4-trifluoromethyl-4,5-dihydro-3H-pyrrol-2yl]-benzyl}acetamide]?
**A.** pest or weed control at 50 µg/mL (Diabrotica balteata [1]; [3]): > 80%; pest or weed control at 200 ppm (Diabrotica balteata [1]; [4]): ≥ 80%

**Q.** `C[C@H](NC(=O)C1CC1)c1ccc(N2CCC(c3cc(Cl)cc(Cl)c3)(C(F)(F)F)C2)cc1` (stereo partly drawn) [Compound B1, N-[(1S)-1-[4-[3-(3,5-dichlorophenyl)-3-(trifluoromethyl)pyrrolidin-1-yl]phenyl]ethyl]cyclopropanecarboxamide] was tested. Which pest or weed control at 50 µg/mL (Diabrotica balteata [1]; [3]) did it give?
**A.** > 80%

**Q.** What about the pest or weed control at 200 ppm (Diabrotica balteata [1]; [4]) of the same molecule?
**A.** ≥ 80%

**Q.** Which results are given for `CC(=O)N[C@@H](C)c1ccc(C2=NOC(c3cc(Cl)cc(Cl)c3)(C(F)(F)F)C2)cc1` (stereo partly drawn) [Compound B2, N-[(1S)-1-[4-[5-(3,5-dichlorophenyl)-5-(trifluoromethyl)-4H-isoxazol-3-yl]phenyl]ethyl]acetamide]?
**A.** pest or weed control at 200 ppm (Diabrotica balteata [1]): ≥ 80%; pest or weed control at 50 µg/mL (Diabrotica balteata [1]): > 80%

**Q.** Which results are given for `C[C@H](NC(=O)C1CC1)c1ccc(C2(C(F)(F)F)CN=C(c3cc(Cl)c(Cl)c(Cl)c3)C2)cc1` (stereo partly drawn) [Compound B3, N-[(1S)-1-[4-[5-(3,4,5-trichlorophenyl)-3-(trifluoromethyl)-2,4-dihydropyrrol-3-yl]phenyl]ethyl]cyclopropanecarboxamide]?
**A.** % larval mortality (Diabrotica balteata [2]; application rate 0.3 mg/seed): 80%; pest or weed control at 50 µg/mL (Diabrotica balteata [1]; [3]): > 80%; pest or weed control at 200 ppm (Diabrotica balteata [1]; [4]): ≥ 80%

**Q.** How did the “% larval mortality” value (Diabrotica balteata [2]; application rate 0.3 mg/seed) turn out when `C[C@H](NC(=O)C1CC1)c1ccc(N2CCC(c3cc(C(F)(F)F)cc(C(F)(F)F)c3)(C(F)(F)F)C2)cc1` (stereo partly drawn) [Compound B4, N-[(1S)-1-[4-[3-[3,5-bis(trifluoromethyl)phenyl]-3-(trifluoromethyl)pyrrolidin-1-yl]phenyl]ethyl]cyclopropanecarboxamide] was run?
**A.** 78%

**Q.** What about the pest or weed control at 50 µg/mL (Diabrotica balteata [1]; [3]) of the same molecule?
**A.** > 80%

**Q.** And the pest or weed control at 200 ppm (Diabrotica balteata [1]; [4])?
**A.** ≥ 80%

**Q.** For `N#Cc1cc(C2=NCC(c3cc(Cl)c(Cl)c(Cl)c3)(C(F)(F)F)C2)ccc1-n1cncn1` (stereo not shown) [Compound C2, 2-(1,2,4-triazol-1-yl)-5-[3-(3,4,5-trichlorophenyl)-3-(trifluoromethyl)-2,4-dihydropyrrol-5-yl]benzonitrile], which “% larval mortality” value (Diabrotica balteata [2]; application rate 0.3 mg/seed) is on record?
**A.** 44%

**Q.** And the pest or weed control at 50 µg/mL (Diabrotica balteata [1]; [3])?
**A.** > 80%

**Q.** And the pest or weed control at 200 ppm (Diabrotica balteata [1]; [4])?
**A.** ≥ 80%

**Q.** How did the “% larval mortality” value (Diabrotica balteata [2]; application rate 1 mg/seed) turn out when `N#Cc1cc(C2=NOC(c3cc(Cl)c(F)c(Cl)c3)(C(F)(F)F)C2)ccc1-n1cncn1` (stereo not shown) [Compound C3] was run?
**A.** 83%

**Q.** And the pest or weed control at 200 ppm (Diabrotica balteata [1])?
**A.** ≥ 80%

**Q.** And the pest or weed control at 50 µg/mL (Diabrotica balteata [1])?
**A.** > 80%

**Q.** How did the “% larval mortality” value (Diabrotica balteata [2]; application rate 1 mg/seed) turn out when `N#Cc1cc(C2=NOC(c3cc(Cl)cc(Cl)c3)(C(F)(F)F)C2)ccc1-n1cncn1` (stereo not shown) [Compound C4] was run?
**A.** 100%

**Q.** Which “% larval mortality” value (Diabrotica balteata [2]; application rate 1 mg/seed) does the source give for `N#Cc1cnn(-c2ccc(C3=NOC(c4cc(Cl)c(F)c(Cl)c4)(C(F)(F)F)C3)cc2C#N)c1` (stereo not shown) [Compound D1] here?
**A.** 100%

**Q.** With `N#Cc1cc(C2=NOC(c3cc(Cl)c(F)c(Cl)c3)(C(F)(F)F)C2)ccc1-n1cc(F)cn1` (stereo not shown) [Compound D2] as the molecule, how does the “% larval mortality” value (Diabrotica balteata [2]; application rate 1 mg/seed) read?
**A.** 100%

**Q.** With `Cc1cc(C2=NOC(c3cc(Cl)cc(Cl)c3)(C(F)(F)F)C2)ccc1-n1cccn1` (stereo not shown) [Compound D5] as the molecule, how does the “control of Diabrotica balteata” value (Diabrotica balteata [1]; [4]) read?
**A.** lower control

**Q.** With `N#Cc1cc(C2=NOC(c3cc(Cl)c(F)c(Cl)c3)(C(F)(F)F)C2)ccc1-n1nc(C(F)(F)F)cc1C(F)(F)F` (stereo not shown) [Compound D10] as the molecule, how does the “control of Diabrotica balteata” value (Diabrotica balteata [1]; [4]) read?
**A.** No activity

**Q.** Which “control of Diabrotica balteata” value (Diabrotica balteata [1]; [4]) does the source give for `N#Cc1cc(C2=NOC(c3cc(Cl)c(F)c(Cl)c3)(C(F)(F)F)C2)ccc1-n1ccc(C(F)(F)F)n1` (stereo not shown) [Compound D11] here?
**A.** No activity

**Q.** `CCC(=O)NC1CCc2cc(C3=NOC(c4cc(Cl)cc(Cl)c4)(C(F)(F)F)C3)ccc21` (stereo not shown) [Compound E1] was tested. Which “% larval mortality” value (Diabrotica balteata [2]; application rate 0.3 mg/seed) did it give?
**A.** 83%

**Q.** Which results are given for `CC(=O)NC1CCc2cc(C3=NCC(c4cc(Cl)cc(Cl)c4)(C(F)(F)F)C3)ccc21` (stereo not shown) [Compound E2, N-[5-[3-(3,5-dichlorophenyl)-3-(trifluoromethyl)-2,4-dihydropyrrol-5-yl]indan-1-yl]acetamide]?
**A.** pest or weed control at 50 µg/mL (Diabrotica balteata [1]; [3]): > 80%; pest or weed control at 200 ppm (Diabrotica balteata [1]; [4]): ≥ 80%

**Q.** With `CCC(=O)NC1CCc2cc(C3=NCC(c4cc(Cl)cc(Cl)c4)(C(F)(F)F)C3)ccc21` (stereo not shown) [Compound E3, N-[5-[3-(3,5-dichlorophenyl)-3-(trifluoromethyl)-2,4-dihydropyrrol-5-yl]indan-1-yl]propanamide] as the molecule, how does the pest or weed control at 50 µg/mL (Diabrotica balteata [1]; [3]) read?
**A.** > 80%

**Q.** What about the pest or weed control at 200 ppm (Diabrotica balteata [1]; [4]) of the same molecule?
**A.** ≥ 80%

**Q.** `O=C(NC1CCc2cc(C3=NCC(c4cc(Cl)cc(Cl)c4)(C(F)(F)F)C3)ccc21)C1CC1` (stereo not shown) [Compound E4, N-[5-[3-(3,5-dichlorophenyl)-3-(trifluoromethyl)-2,4-dihydropyrrol-5-yl]indan-1-yl]cyclopropanecarboxamide] was tested. Which pest or weed control at 50 µg/mL (Diabrotica balteata [1]; [3]) did it give?
**A.** > 80%

**Q.** What about the pest or weed control at 200 ppm (Diabrotica balteata [1]; [4]) of the same molecule?
**A.** ≥ 80%

**Q.** Which results are given for `O=C(NC1CCc2cc(C3=NCC(c4cc(Cl)cc(Cl)c4)(C(F)(F)F)C3)ccc21)C(F)(F)F` (stereo not shown) [Compound E5, N-[5-[3-(3,5-dichlorophenyl)-3-(trifluoromethyl)-2,4-dihydropyrrol-5-yl]indan-1-yl]-2,2,2-trifluoro-acetamide]?
**A.** pest or weed control at 50 µg/mL (Diabrotica balteata [1]; [3]): > 80%; pest or weed control at 200 ppm (Diabrotica balteata [1]; [4]): ≥ 80%

**Q.** With `CCC(=O)NC1CCc2cc(N3CCC(c4cc(C(F)(F)F)cc(C(F)(F)F)c4)(C(F)(F)F)C3)ccc21` (stereo not shown) [Compound E6, N-[5-[3-[3,5-bis(trifluoromethyl)phenyl]-3-(trifluoromethyl)pyrrolidin-1-yl]indan-1-yl]propanamide] as the molecule, how does the pest or weed control at 50 µg/mL (Diabrotica balteata [1]; [3]) read?
**A.** > 80%

**Q.** What about the pest or weed control at 200 ppm (Diabrotica balteata [1]; [4]) of the same molecule?
**A.** ≥ 80%

**Q.** For `O=C(CC(F)(F)F)NC1CCc2cc(C3=NOC(c4cc(Cl)cc(Cl)c4)(C(F)(F)F)C3)ccc21` (stereo not shown) [Compound E7], which “% larval mortality” value (Diabrotica balteata [2]; application rate 0.3 mg/seed) is on record?
**A.** 60%

**Q.** With `O=C(CC(F)(F)F)NC1CCc2cc(C3=NOC(c4cc(Cl)cc(Cl)c4)(C(F)(F)F)C3)ccc21` (stereo not shown) [drawing 74] as the molecule, how does the Control/% (Diabrotica balteata [1]; application rate 3 ppm) read?
**A.** 100%

**Q.** What about the Control/% (Diabrotica balteata [1]; application rate 12.5 ppm) of the same molecule?
**A.** 100%

**Q.** What does the source list for `N#Cc1cc(C2=NOC(c3cc(Cl)cc(Cl)c3)(C(F)(F)F)C2)ccc1-n1cncn1` (stereo not shown) [drawing 76]?
**A.** Control/% (Diabrotica balteata [1]; application rate 3 ppm): 65%; Control/% (Diabrotica balteata [1]; application rate 12.5 ppm): 100%

**Q.** With `O=C(NCC(F)(F)F)N1CCc2cc(C3=NOC(c4cc(Cl)cc(Cl)c4)(C(F)(F)F)C3)ccc21` (stereo not shown) [reference compound] as the molecule, how does the Control/% (Diabrotica balteata [1]; application rate 12.5 ppm) read?
**A.** 65%

**Q.** `FC(F)(F)C1(c2cc(Cl)cc(Cl)c2)CC(c2ccc(-n3cncn3)cc2)=NO1` (stereo not shown) [reference compound] was tested. Which Control/% (Diabrotica balteata [1]; application rate 3 ppm) did it give?
**A.** 0%

**Q.** And the Control/% (Diabrotica balteata [1]; application rate 12.5 ppm)?
**A.** 85%
